“And” between values parts separate entries of the source, which are not always exact repeats. Equal values may be shown once.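 1) Cells in 96-well plates. 2) Compound, 48 h, 5 concentrations. 3) Linear interpolation between surrounding doses. 4) Unreached endpoint = highest concentration. Here, GI50 denotes the concentration required for 50% inhibition of growth. TGI marks complete inhibition of growth.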
The molecules below were run on HOP-62 NSCLC (assay: inhibition of tumour cell growth, NCI panel, 48 h).

Compound	GI50	TGI
O=C1/C(=C\c2ccccc2)C2OCC=C3CN4CCC56c7ccccc7N1C5C2C3CC46 (stereo not given)	54.3 µM	> 100 µM
CCCCCCCCCCSC(=N)N	3.36 µM	10.3 µM
Cc1cc(Br)cc(C)c1NC(=O)C(=O)Nn1c(=S)[nH]c2ccccc2c1=O	–	> 100 µM
Cn1cc(-c2nc(N[C@@H]3CCCC[C@@H]3N)c(F)c3c2C(=O)NC3)cn1	3.37 µM and 3.32 µM	29.7 µM and 30.5 µM
CCOC(=O)c1c(C)n(Cc2ccccc2)c2c1cc1oc(=O)c(=O)n3cnc2c13	29.4 µM	> 50 µM
O=C(/C=C/c1ccco1)c1ccc(Nc2nc(Nc3ccc(F)cc3)nc(Nc3ccc(F)cc3)n2)cc1	57.4 µM	> 100 µM
O=C(NOCCO)c1cc(CN2OCCCC2=O)c(F)c(F)c1Nc1ccc(I)cc1F	0.0195 µM	> 100 µM
CN(C(=O)CNC(=O)/C=C/c1cccc(Cl)c1)C1CCS(=O)(=O)CC1	11 µM	> 100 µM
Cc1cc2nc3c4ccc(Br)cc4n(CCN(C)C)c3nc2cc1C	1.71 µM	10.7 µM
NNC(=O)C(O)C(O)C(=O)NN (stereo not given)	–	> 100 µM
O=C(/C=C/c1cccc2ccccc12)Nc1ncc(Cc2ccccc2)s1	0.885 µM	4.56 µM
CCCN1CCC=C(c2ccc(Nc3nc(Nc4ccccc4C(N)=O)c4cc[nH]c4n3)c(C)c2)C1	> 20 µM	> 25 µM

Each molecule was assayed on HS 578T breast (assay: inhibition of tumour cell growth, NCI panel, 48 h).

Compound	GI50	TGI
O=C1/C(=C\c2ccccc2)C2OCC=C3CN4CCC56c7ccccc7N1C5C2C3CC46 (stereo not given)	62.5 µM	> 100 µM
CCCCCCCCCCSC(=N)N	2.93 µM	12.5 µM
Cc1cc(Br)cc(C)c1NC(=O)C(=O)Nn1c(=S)[nH]c2ccccc2c1=O	–	> 100 µM
Cn1cc(-c2nc(N[C@@H]3CCCC[C@@H]3N)c(F)c3c2C(=O)NC3)cn1	5.95 µM and 6.14 µM	71 µM and 57.2 µM
CCOC(=O)c1c(C)n(Cc2ccccc2)c2c1cc1oc(=O)c(=O)n3cnc2c13	34.3 µM	> 50 µM
O=C(/C=C/c1ccco1)c1ccc(Nc2nc(Nc3ccc(F)cc3)nc(Nc3ccc(F)cc3)n2)cc1	22.8 µM	65 µM
O=C(NOCCO)c1cc(CN2OCCCC2=O)c(F)c(F)c1Nc1ccc(I)cc1F	20.6 µM and > 10 µM	> 100 µM
CN(C(=O)CNC(=O)/C=C/c1cccc(Cl)c1)C1CCS(=O)(=O)CC1	90.4 µM	> 100 µM
Cc1cc2nc3c4ccc(Br)cc4n(CCN(C)C)c3nc2cc1C	2.06 µM	6.38 µM
NNC(=O)C(O)C(O)C(=O)NN (stereo not given)	–	> 100 µM
O=C(/C=C/c1cccc2ccccc12)Nc1ncc(Cc2ccccc2)s1	0.703 µM	5.34 µM
CCCN1CCC=C(c2ccc(Nc3nc(Nc4ccccc4C(N)=O)c4cc[nH]c4n3)c(C)c2)C1	> 17.8 µM	> 25 µM

Each molecule was assayed on NCI-H226 lung (assay: inhibition of tumour cell growth, NCI panel, 48 h).

Compound	GI50	TGI
O=C1/C(=C\c2ccccc2)C2OCC=C3CN4CCC56c7ccccc7N1C5C2C3CC46 (stereo not given)	11.3 µM	> 100 µM
CCCCCCCCCCSC(=N)N	6.09 µM	23.2 µM
Cc1cc(Br)cc(C)c1NC(=O)C(=O)Nn1c(=S)[nH]c2ccccc2c1=O	–	> 100 µM
Cn1cc(-c2nc(N[C@@H]3CCCC[C@@H]3N)c(F)c3c2C(=O)NC3)cn1	2.93 µM and 3.83 µM	23.9 µM and 49.7 µM
CCOC(=O)c1c(C)n(Cc2ccccc2)c2c1cc1oc(=O)c(=O)n3cnc2c13	20.3 µM	> 50 µM
O=C(/C=C/c1ccco1)c1ccc(Nc2nc(Nc3ccc(F)cc3)nc(Nc3ccc(F)cc3)n2)cc1	53.3 µM	> 100 µM
O=C(NOCCO)c1cc(CN2OCCCC2=O)c(F)c(F)c1Nc1ccc(I)cc1F	1.89 µM and 9.97 µM	> 100 µM
CN(C(=O)CNC(=O)/C=C/c1cccc(Cl)c1)C1CCS(=O)(=O)CC1	1.02 µM	> 100 µM
Cc1cc2nc3c4ccc(Br)cc4n(CCN(C)C)c3nc2cc1C	2.46 µM	11.1 µM
NNC(=O)C(O)C(O)C(=O)NN (stereo not given)	–	> 100 µM
O=C(/C=C/c1cccc2ccccc12)Nc1ncc(Cc2ccccc2)s1	1.37 µM	> 100 µM
CCCN1CCC=C(c2ccc(Nc3nc(Nc4ccccc4C(N)=O)c4cc[nH]c4n3)c(C)c2)C1	> 17.7 µM	> 25 µM

The molecules below were run on HT29 colon (assay: inhibition of tumour cell growth, NCI panel, 48 h).

Compound	GI50	TGI
O=C1/C(=C\c2ccccc2)C2OCC=C3CN4CCC56c7ccccc7N1C5C2C3CC46 (stereo not given)	2.07 µM	5.37 µM
CCCCCCCCCCSC(=N)N	1.42 µM	2.84 µM
Cc1cc(Br)cc(C)c1NC(=O)C(=O)Nn1c(=S)[nH]c2ccccc2c1=O	–	> 100 µM
Cn1cc(-c2nc(N[C@@H]3CCCC[C@@H]3N)c(F)c3c2C(=O)NC3)cn1	4.33 µM and 5.99 µM	81.5 µM and > 94.4 µM
CCOC(=O)c1c(C)n(Cc2ccccc2)c2c1cc1oc(=O)c(=O)n3cnc2c13	18.3 µM	> 50 µM
O=C(/C=C/c1ccco1)c1ccc(Nc2nc(Nc3ccc(F)cc3)nc(Nc3ccc(F)cc3)n2)cc1	18.1 µM	> 100 µM
O=C(NOCCO)c1cc(CN2OCCCC2=O)c(F)c(F)c1Nc1ccc(I)cc1F	< 0.01 µM and 0.0029 µM	> 42.7 µM
CN(C(=O)CNC(=O)/C=C/c1cccc(Cl)c1)C1CCS(=O)(=O)CC1	0.889 µM	> 100 µM
Cc1cc2nc3c4ccc(Br)cc4n(CCN(C)C)c3nc2cc1C	0.664 µM	2.89 µM
NNC(=O)C(O)C(O)C(=O)NN (stereo not given)	–	> 100 µM
O=C(/C=C/c1cccc2ccccc12)Nc1ncc(Cc2ccccc2)s1	1 µM	> 47 µM
CCCN1CCC=C(c2ccc(Nc3nc(Nc4ccccc4C(N)=O)c4cc[nH]c4n3)c(C)c2)C1	0.407 µM	> 13.2 µM

These molecules were tested on KM12 colon (assay: inhibition of tumour cell growth, NCI panel, 48 h).

Compound	GI50	TGI [µM]
O=C1/C(=C\c2ccccc2)C2OCC=C3CN4CCC56c7ccccc7N1C5C2C3CC46 (stereo not given)	34.4 µM	> 100
CCCCCCCCCCSC(=N)N	2.45 µM	6.5
Cc1cc(Br)cc(C)c1NC(=O)C(=O)Nn1c(=S)[nH]c2ccccc2c1=O	–	> 100
Cn1cc(-c2nc(N[C@@H]3CCCC[C@@H]3N)c(F)c3c2C(=O)NC3)cn1	0.458 µM and 0.452 µM	> 100
CCOC(=O)c1c(C)n(Cc2ccccc2)c2c1cc1oc(=O)c(=O)n3cnc2c13	19.2 µM	> 50
O=C(/C=C/c1ccco1)c1ccc(Nc2nc(Nc3ccc(F)cc3)nc(Nc3ccc(F)cc3)n2)cc1	13.3 µM	> 100
O=C(NOCCO)c1cc(CN2OCCCC2=O)c(F)c(F)c1Nc1ccc(I)cc1F	0.0561 µM and 0.0719 µM	> 100
CN(C(=O)CNC(=O)/C=C/c1cccc(Cl)c1)C1CCS(=O)(=O)CC1	7.99 µM	> 100
Cc1cc2nc3c4ccc(Br)cc4n(CCN(C)C)c3nc2cc1C	1.54 µM	4.66
NNC(=O)C(O)C(O)C(=O)NN (stereo not given)	–	> 100
O=C(/C=C/c1cccc2ccccc12)Nc1ncc(Cc2ccccc2)s1	0.866 µM	> 100
CCCN1CCC=C(c2ccc(Nc3nc(Nc4ccccc4C(N)=O)c4cc[nH]c4n3)c(C)c2)C1	9.48 µM	> 25
